In ChEMBL document CHEMBL1201862, “PubChem BioAssay data set” (2004):
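Cells were grown in 96-well plates and exposed to each compound for 48 hours at five concentrations; endpoints were interpolated linearly between bracketing concentrations, or set to the highest concentration if not reached. At the GI50, growth is halved.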 Activity calls are given as the source filed them. Cut-off read from the data, not from the text of the source: active = GI50 up to about 1.1 µM and inactive = higher.

What was measured:
Assay in all cases: inhibition of tumour cell growth, NCI panel, 48 h
786-0 = system: 786-0
HCT-15 = system: HCT-15
HL-60 = system: HL-60
HOP-62 = system: HOP-62
IGROV-1 = system: IGROV-1
KM12 = system: KM12
NCI-H23 = system: NCI-H23
NCI-H460 = system: NCI-H460
NCI-H522 = system: NCI-H522
OVCAR-3 = system: OVCAR-3
RPMI-8226 = system: RPMI-8226
RXF 393 = system: RXF 393
SF-295 = system: SF-295
SNB-19 = system: SNB-19
UACC-62 = system: UACC-62
UO-31 = system: UO-31
MOLT-4 = system: MOLT-4

SMILES	GI50 (786-0)	GI50 (HCT-15) [µM]	GI50 (HL-60)	GI50 (HOP-62)	GI50 (IGROV-1)	GI50 (KM12)	GI50 (NCI-H23)	GI50 (NCI-H460)	GI50 (NCI-H522)	GI50 (OVCAR-3)	GI50 (RPMI-8226)	GI50 (RXF 393)	GI50 (SF-295)	GI50 (SNB-19)	GI50 (UACC-62)	GI50 (UO-31)	GI50 (MOLT-4)
COC(=O)c1nc(N)nc(O)c1CCCCCc1c(O)nc(N)nc1C(=O)OC	> 50 µM (inactive)	> 50	> 50 µM (inactive)	> 50 µM (inactive)	> 50 µM (inactive)	> 50 µM (inactive)	> 50 µM (inactive)	> 50 µM (inactive)	> 50 µM (inactive)	> 50 µM (inactive)	> 50 µM (inactive)	> 50 µM (inactive)	> 50 µM (inactive)	> 50 µM (inactive)	> 50 µM (inactive)	> 50 µM (inactive)	–
CCOC(=O)/C(C(=O)c1ccccc1)=C1/NCCN1C	> 100 µM (inactive)	> 100	> 100 µM (inactive)	> 100 µM (inactive)	> 100 µM (inactive)	> 100 µM (inactive)	> 100 µM (inactive)	> 100 µM (inactive)	> 100 µM (inactive)	> 100 µM (inactive)	> 100 µM (inactive)	> 100 µM (inactive)	> 100 µM (inactive)	> 100 µM (inactive)	> 100 µM (inactive)	> 100 µM (inactive)	> 100 µM (inactive)
CC1=C(c2ccccc2)C(c2ccccc2)=C(c2ccccc2)C2(c3ccccc3)C(=O)C(C)CN12 (centres undefined)	30.6 µM (inactive)	61.2	–	> 100 µM (inactive)	99.5 µM (inactive)	43.1 µM (inactive)	–	32.7 µM (inactive)	15.7 µM (inactive)	34.7 µM (inactive)	29.2 µM (inactive)	26.1 µM (inactive)	13.3 µM (inactive)	26.5 µM (inactive)	10.3 µM (inactive)	> 100 µM (inactive)	16.6 µM (inactive)
CCOc1ccc(Nc2nc(C)c(C(=O)/C=C/c3ccc(Cl)cc3Cl)s2)cc1	19.5 µM (inactive)	22.2	27.2 µM (inactive)	31.3 µM (inactive)	35.5 µM (inactive)	18.3 µM (inactive)	22.6 µM (inactive)	21.4 µM (inactive)	21.1 µM (inactive)	20.2 µM (inactive)	46.9 µM (inactive)	17.7 µM (inactive)	20 µM (inactive)	31.4 µM (inactive)	24 µM (inactive)	25.2 µM (inactive)	23 µM (inactive)
Cc1ccc(NC(=O)CC/C(CC(=O)C(C)(C)C)=N/NC(=O)C(N)=O)cc1C	> 100 µM (inactive)	> 100	> 100 µM (inactive)	> 100 µM (inactive)	> 100 µM (inactive)	> 100 µM (inactive)	> 100 µM (inactive)	> 100 µM (inactive)	> 100 µM (inactive)	> 100 µM (inactive)	> 100 µM (inactive)	> 100 µM (inactive)	> 100 µM (inactive)	> 100 µM (inactive)	> 100 µM (inactive)	> 100 µM (inactive)	> 100 µM (inactive)
Cc1c(C)n(COCCO)c2ncnc(N)c12	> 100 µM (inactive)	> 100	> 100 µM (inactive)	–	> 100 µM (inactive)	> 100 µM (inactive)	> 100 µM (inactive)	> 100 µM (inactive)	> 100 µM (inactive)	> 100 µM (inactive)	> 100 µM (inactive)	> 100 µM (inactive)	> 100 µM (inactive)	> 100 µM (inactive)	–	> 100 µM (inactive)	> 100 µM (inactive)
N#C/C(=C/c1ccsc1)C(=O)c1ccccc1	> 100 µM (inactive)	> 100	> 100 µM (inactive)	> 100 µM (inactive)	–	> 100 µM (inactive)	> 100 µM (inactive)	> 100 µM (inactive)	> 100 µM (inactive)	> 100 µM (inactive)	> 100 µM (inactive)	> 100 µM (inactive)	> 100 µM (inactive)	> 100 µM (inactive)	> 100 µM (inactive)	> 100 µM (inactive)	> 100 µM (inactive)
COC(=O)C1=C(C(=O)OC)C2(C(=O)OC)OC1(OC)C(C1(C(=O)OC)C(C(=O)OC)=C1C(=O)OC)=C2C(=O)OC (centres undefined)	> 100 µM (inactive)	> 100	> 100 µM (inactive)	> 100 µM (inactive)	> 100 µM (inactive)	> 100 µM (inactive)	> 100 µM (inactive)	> 100 µM (inactive)	> 100 µM (inactive)	> 100 µM (inactive)	> 100 µM (inactive)	> 100 µM (inactive)	> 100 µM (inactive)	> 100 µM (inactive)	> 100 µM (inactive)	> 100 µM (inactive)	> 100 µM (inactive)
C=CC1=CSNN1	> 100 µM (inactive)	> 100	> 100 µM (inactive)	> 100 µM (inactive)	> 100 µM (inactive)	> 100 µM (inactive)	> 100 µM (inactive)	> 100 µM (inactive)	> 100 µM (inactive)	> 100 µM (inactive)	> 100 µM (inactive)	> 100 µM (inactive)	> 100 µM (inactive)	> 100 µM (inactive)	> 100 µM (inactive)	> 100 µM (inactive)	> 100 µM (inactive)
COC(=O)C1=Cc2cn(S(=O)(=O)c3ccc(C)cc3)c3cccc(c23)C(C=C(C)C)N1C(C)=O (centres undefined)	> 100 µM (inactive)	–	5.56 µM (inactive)	> 100 µM (inactive)	48.8 µM (inactive)	> 100 µM (inactive)	36.9 µM (inactive)	–	5.83 µM (inactive)	9.14 µM (inactive)	–	13.8 µM (inactive)	6.11 µM (inactive)	49 µM (inactive)	47.4 µM (inactive)	26.1 µM (inactive)	3.1 µM (inactive)
CC(C)(C)OC(=O)NCCc1cccc2c1oc1c(CCC(=O)O)cccc12	> 100 µM (inactive)	> 100	> 100 µM (inactive)	–	> 100 µM (inactive)	> 100 µM (inactive)	> 100 µM (inactive)	> 100 µM (inactive)	> 100 µM (inactive)	50.7 µM (inactive)	> 100 µM (inactive)	> 100 µM (inactive)	> 100 µM (inactive)	> 100 µM (inactive)	> 100 µM (inactive)	> 100 µM (inactive)	> 100 µM (inactive)
Cc1[nH]c(O)nc1C(=O)c1ccc(-n2ccnc2)cc1	> 100 µM (inactive)	> 100	> 100 µM (inactive)	> 100 µM (inactive)	> 100 µM (inactive)	> 100 µM (inactive)	–	> 100 µM (inactive)	> 100 µM (inactive)	> 100 µM (inactive)	> 100 µM (inactive)	> 100 µM (inactive)	> 100 µM (inactive)	> 100 µM (inactive)	> 100 µM (inactive)	> 100 µM (inactive)	> 100 µM (inactive)
O=C(O)CN(c1ccc(F)cc1)S(=O)(=O)c1ccccc1	> 100 µM (inactive)	> 100	> 100 µM (inactive)	–	> 100 µM (inactive)	> 100 µM (inactive)	> 100 µM (inactive)	> 100 µM (inactive)	> 100 µM (inactive)	> 100 µM (inactive)	> 100 µM (inactive)	> 100 µM (inactive)	> 100 µM (inactive)	> 100 µM (inactive)	> 100 µM (inactive)	> 100 µM (inactive)	> 100 µM (inactive)
